Results reported in US20240239840A1, “method for the treatment of pain and a medicinal product for administration during pain” (PVP LABS PTE.LTD., priority 2023, published 2024).
Square brackets hold non-standard residues; d marks the D form. Peptide text beside a SMILES is read from it.

Key:
μ1-opioid receptor = μ1-opioid receptor (Homo sapiens, UniProt P35372); experiment: opioid receptor specificity of the tetrapeptide; type: binding
Excerpt: (§1) Two subtypes of μ receptors are recognized: activation of μ1 receptors causes pronounced analgesia, while activation of μ2-receptors leads to respiratory depression, cardiovascular system disturbances such as bradycardia, and suppression of intestinal motility. Therefore, high specificity of the tetrapeptide in question to μ1-opioid receptors ensures the absence of side effects that are typical of most opioid narcotic medications. This tetrapeptide interacts with peripheral and central receptors, although it mostly acts at the spinal level. After the tetrapeptide binds to μ1-receptors, G-protein complex is released, which inhibits the release of neurotransmitters by the cell by reducing the amount of cAMP produced, closing calcium channels and opening potassium channels, which, among other consequences, inhibits the transmission of pain signals in nociceptors. The tetrapeptide activates the antinociceptive system, thereby disrupting interneuronal transmission of pain signals at different levels of the CNS, and changes the intensity of pain perception by acting on the higher brain centres.

δ-receptors = δ-receptors (Homo sapiens, UniProt P41143); experiment: opioid receptor specificity of the tetrapeptide; type: binding
Excerpt: as §1

other opioid receptors = experiment: opioid receptor specificity of the tetrapeptide; type: binding
Excerpt: as §1

[1] = clinical trial of pain treatment in the early postoperative period, safety; type: in vivo, human; settings: groups treated with Promedol
Procedure: (§2) Additional clinical trials focused of the treatment of pain in the early postoperative period after a variety of surgical interventions, including urological, gynaecological and other surgeries.
(§3) If NRS pain intensity score on day two was <4, only paracetamol was administered by IV injection as necessary, and the maximum daily dose was […]. […] Pain was usually brought under control within 1-2 days in the early postoperative period.

[2] = test system: patients with early postoperative pain; experiment: clinical trial of pain treatment in the early postoperative period, efficacy; type: in vivo, human
Procedure: as §2, §3

[3] = phase II clinical trial, safety in cancer patients experiencing pain
Procedure: (§4) Pain intensity was evaluated on a numeric rating scale (NRS) from 0 to 10. […] The patients' physical activity score on the Eastern Cooperative Oncology Group (ECOG) performance status scale was 0 to 3, i.e. they were active and were up and about for over 50% of waking hours (grade 2 on the ECOG scale) or were capable of only limited self-care and confined to bed or chair more than 50% of waking hours (grade 3 on the ECOG scale).
(§5) The study was carried out in two stages. The total duration of the trial for each patient was 20 days or less. […] The number of doses depended on pain intensity as evaluated on the NRS scale for each individual patient.
Comments: 1. […] 2. SAE=serious adverse event.

[4] = test system: patients with cancer pain; experiment: phase III clinical trial, efficacy in patients with cancer pain; type: in vivo, human
Procedure: Primary efficacy evaluation was performed during the following visits: Visit 1 (day 1 of tetrapeptide treatment), Visit 2 (day 28±2 of tetrapeptide treatment), Visit 3 (day 56±2 of tetrapeptide treatment) and Visit 4 (day 86±2 of tetrapeptide treatment).
Analgesic treatment response maintenance rate by day 28.
Treatment response was considered maintained if all of the following conditions were met: • 1. […] Daily average pain intensity at the end of the 28-day treatment period remains at <50% of the intensity at the start of titration.

[5] = phase III clinical trial, safety in patients with cancer pain
[6] = test system: cancer patients with severe cancer pain; experiment: phase II clinical trial, efficacy in cancer patients experiencing pain; type: in vivo, human
Procedure: as §4, §5
The primary efficacy endpoint was the rate of achieving a sufficient analgesic effect throughout the day.

[7] = Promedol 20 mg three times daily
[8] = Promedol 20 mg three times daily on day 1
[9] = investigator-evaluated, Visit 2

Chain of δ-receptors (P41143 whole entry): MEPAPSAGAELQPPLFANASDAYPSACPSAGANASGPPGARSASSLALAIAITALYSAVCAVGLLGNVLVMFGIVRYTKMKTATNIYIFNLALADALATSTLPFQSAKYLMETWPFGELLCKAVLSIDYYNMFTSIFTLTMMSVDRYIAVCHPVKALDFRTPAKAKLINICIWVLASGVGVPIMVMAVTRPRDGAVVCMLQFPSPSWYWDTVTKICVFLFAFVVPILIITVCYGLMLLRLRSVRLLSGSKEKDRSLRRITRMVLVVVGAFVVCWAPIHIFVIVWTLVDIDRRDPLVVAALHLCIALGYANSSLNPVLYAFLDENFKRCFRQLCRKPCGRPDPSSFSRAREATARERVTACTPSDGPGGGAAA
Chain of μ1-opioid receptor (P35372 whole entry): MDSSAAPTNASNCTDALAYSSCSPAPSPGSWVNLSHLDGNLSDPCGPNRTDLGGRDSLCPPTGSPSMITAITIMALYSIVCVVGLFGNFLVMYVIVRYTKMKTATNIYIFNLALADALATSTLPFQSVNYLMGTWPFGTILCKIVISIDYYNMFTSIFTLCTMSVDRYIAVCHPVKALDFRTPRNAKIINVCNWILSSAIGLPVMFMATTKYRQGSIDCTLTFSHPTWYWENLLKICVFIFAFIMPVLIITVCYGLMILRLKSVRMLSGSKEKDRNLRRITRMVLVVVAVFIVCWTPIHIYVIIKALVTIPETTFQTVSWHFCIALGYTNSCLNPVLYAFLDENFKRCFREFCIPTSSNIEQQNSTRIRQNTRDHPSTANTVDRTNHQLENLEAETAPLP

## N=C(N)NCCC[C@@H](NC(=O)[C@@H](N)Cc1ccc(O)cc1)C(=O)N[C@@H](Cc1ccccc1)C(=O)NCC(N)=O [H-Tyr-D-Arg-Phe-Gly-NH2, Tyrosyl-D-arginyl-phenylalanyl-glycinamide] (H-Y[dR]FG-NH2)
μ1-opioid receptor
  opioid receptor activity: highly specific μ1-opioid receptor agonist
δ-receptors
  interaction with δ-receptors weaker than with μ-opioid receptors: 3 orders of magnitude
Other opioid receptors
  interactions with the other receptors: no interactions with the other receptors have been detected

## CCC(=O)OC1(c2ccccc2)CC(C)N(C)CC1C (centres unmarked) [Promedol]
[1]
  patients with AEs: 35%
[2]; [7]
  daily average NRS pain intensity score: 2.16±0.66
  mean change in pain intensity: 55.44±33.17%
  proportion of patients with greater than 50% pain relief at 1 hour after the initial dose: 50%
[2]; [8]
  patients requiring repeat dosing on day 2 who were dosed three times: 16.67%
  patients requiring repeat dosing on day 2 who were dosed twice: 83.33%
[2]; day 2, Promedol 20 mg three times daily
  daily average NRS pain intensity score: 1.41±1.92

## CN1CC[C@]23c4c5ccc(O)c4O[C@H]2[C@@H](O)C=C[C@H]3[C@H]1C5 [morphine]
[3]; human, in vivo
  dyspnoea / difficulty breathing: difficulty breathing was observed
[3]; stage 2
  Acute heart failure (SAE), % of the total number of AEs for the group: (3.7) %
  Anaemia, % of the total number of AEs for the group: (3.7) %
  Appetite lost, % of the total number of AEs for the group: (7.4) %
  Asthenia, % of the total number of AEs for the group: (14.8) %
  Constipation, % of the total number of AEs for the group: (14.8) %
  Cough, % of the total number of AEs for the group: (3.7) %
  Dizziness postural, % of the total number of AEs for the group: (0) %
  Dizziness, % of the total number of AEs for the group: (3.7) %
  Dry mouth, % of the total number of AEs for the group: (3.7) %
  Flatulence, % of the total number of AEs for the group: (3.7) %
  Insomnia, % of the total number of AEs for the group: (3.7) %
  Multiple organ dysfunction syndrome (SAE), % of the total number of AEs for the group: (3.7) %
  Nausea, % of the total number of AEs for the group: (3.7) %
  Peripheral oedema, % of the total number of AEs for the group: (3.7) %
  Pulmonary oedema (SAE), % of the total number of AEs for the group: (3.7) %
  Sedation, % of the total number of AEs for the group: (7.4) %
  Shortness of breath, % of the total number of AEs for the group: (3.7) %
  Total, % of the total number of AEs for the group: (100) %
  Vomiting, % of the total number of AEs for the group: (3.7) %
[3]; stage 2, 16 patients per group
  incidence of AEs: 50.0%
  number of patients in whom AEs were reported: 8
[3]; stage 2, in 1 patient
  number of SAEs reported: 1
[4]; Visit 0
  average SF-36 mental health score: 31.42±12.16
  average SF-36 physical health score: 32.22±10.76
[4]; Visit 2
  average SF-36 mental health score: 31.42±12.16
  average SF-36 physical health score: 49.52±11.73
[4]; by Visit 2
  non-responders to therapy: no non-responders
  proportion of patients who required a dose increase: 6.52%
  proportion of patients with at least one episode of breakthrough pain: 2.17%
[4]; by group, at Visit 2
  daily average NRS pain intensity score (Mean±SD): 0.28±0.30
[4]; [9]
  proportion of patients with a “good response” to therapy: 67.39%
  proportion of patients with a “satisfactory response” to therapy: 0.00%
  proportion of patients with an “excellent response” to therapy: 32.61%
[5]; Period 1
  prevalence of patients with AEs: 71.19%
  total number of AEs reported: 119
[5]; Period 1, % of cases
  AEs mild: 65.55%
  AEs moderate: 33.61%
  AEs severe: 0.84%
  causality between AEs and therapy: certain: 13.44%
  causality between AEs and therapy: conditional: 0.84%
  causality between AEs and therapy: possible: 38.66%
  causality between AEs and therapy: probable: 29.41%
  causality between AEs and therapy: unclassifiable: 0.84%
  causality between AEs and therapy: unlikely: 11.76%
  causality between AEs and therapy: unrelated: 5.04%
[5]; both, human, in vivo, oral
  number of AEs with causality “certain”, “probable” or “possible”: 97
[5]; comprehensive within-group analysis (44/120 vs 43/59)
  prevalence of patients with reported AEs: 72.88%
[6]; baseline, all Taphalgin dose subgroups
  average stable daily dose ensuring adequate pain relief: 20.31 mg
[6]; before study, patients of the 2 mg Taphalgin subgroup
  average starting dose: 18.33 mg
[6]; stage 2
  within-group trend of daily average NRS pain intensity scores: flat
[6]; stage 2, day of dosing 11
  daily average NRS pain intensity score: 0.12 ± 0.22
[6]; stage 2, day of dosing 12
  daily average NRS pain intensity score: 0.30 ± 0.38
[6]; stage 2, day of dosing 13
  daily average NRS pain intensity score: 0.24 ± 0.35
[6]; stage 2, day of dosing 14
  daily average NRS pain intensity score: 0.24 ± 0.35
[6]; stage 2, day of dosing 15
  daily average NRS pain intensity score: 0.28 ± 0.30
[6]; stage 2, day of dosing 16
  daily average NRS pain intensity score: 0.17 ± 0.21
[6]; stage 2, day of dosing 17
  daily average NRS pain intensity score: 0.17 ± 0.23
